Measured values reported in patent US6680331B2, “Lactam and thiolactam derivatives as anesthetic and conscious sedation agents” (priority 2001, dated 2004).
Values joined by “and” are separate entries in the source; they are usually repeats but may differ in a detail not shown here. Identical values can stand only once.

Legend:
mice = details: cited from earlier work
Female ICR mice = assay: Loss of righting reflex (LORR) model of anesthesia; format: in vivo
Description: Female ICR mice, weighing between 18 and 31 g were used for all experiments. The animals were housed four in a cage in a […] light/dark cycle with free access to food and water. Animal weight at the time of the experiment ranged from 22 to 33 g. On the day of the experiment, animals were brought to the lab in groups of 6-8. They were not allowed food or water for the duration of the testing period. After each experiment, animals were sacrificed.
Diethyl lactam was synthesized as described previously (Example 1 and U.S. Pat. Nos. 6,066,666 and 5,776,959) and dissolved in 0.9% saline. All drugs were given by intraperitoneal (i.p.) injections in a volume of 0.01 ml/g body weight.
The anesthetic effect was determined using the loss of righting reflex (LORR) model of anesthesia. […] The time to onset and duration of loss of righting reflex was recorded for each animal.
Animals were given diethyl lactam at doses of 250, 325, 375, 500, 625, 750, 875 and 1000 mg/kg of body weight, and the time to regain the righting reflex (RR) as well as the duration of LORR were measured (Table 1). […] Other movements include a shiver (one mouse), a head twitch (one mouse), face vibrations (one mouse) and repetitive hindlimb scratching (one mouse).

[1] = 500 mg/kg i.p., mice, ± one standard deviation
[2] = 625 mg/kg i.p., mice, ± one standard deviation
[3] = 750 mg/kg i.p., mice, ± one standard deviation
[4] = 1000 mg/kg i.p., mice, ± one standard deviation
[5] = 1000 mg/kg i.p., two mice excluded from the trial, listed as diethyl lactam

Structure (SMILES): CCC1(CC)CCCNC1=O [3,3-diethyl-2-piperidinone]
- Sedative activity (mice): only weak sedative activity

Structure (SMILES): CCC1(CC)CCNC1=O [DiethylABL, 3,3-diethyl-2-pyrrolidinone]
- Duration of LORR (Female ICR mice; 250 mg/kg i.p., mice): 0 min
- LORR (time to onset of loss of righting reflex) (Female ICR mice; 250 mg/kg i.p., mice): none at 30 min
- Duration of LORR (Female ICR mice; 325 mg/kg i.p., mice): 0 min
- LORR (time to onset of loss of righting reflex) (Female ICR mice; 325 mg/kg i.p., mice): none at 30 min
- Duration of LORR (Female ICR mice; 375 mg/kg i.p., mice): 0 min
- LORR (time to onset of loss of righting reflex) (Female ICR mice; 375 mg/kg i.p., mice): none at 30 min
- Face vibrations (Female ICR mice; 500 mg/kg i.p., five mice): one mouse
- Head twitch (Female ICR mice; 500 mg/kg i.p., five mice): one mouse
- Mice seen to twitch (Female ICR mice; 500 mg/kg i.p., five mice): Three of the five
- Repetitive hindlimb scratching (Female ICR mice; 500 mg/kg i.p., five mice): one mouse
- Shiver (Female ICR mice; 500 mg/kg i.p., five mice): one mouse
- Physical movements observed during the experiment (Female ICR mice; 500 mg/kg i.p., mice): various physical movements
- Duration of LORR (Female ICR mice; [1]): 38.8 ± 11.6 min
- LORR (time to onset of loss of righting reflex) (Female ICR mice; [1]): 2.4 ± 1.8 min
- Regain RR (Female ICR mice; [1]): 41 ± 12 min
- Duration of LORR (Female ICR mice; [2]): 51.3 ± 16.2 min
- LORR (time to onset of loss of righting reflex) (Female ICR mice; [2]): 1.7 ± 0.8 min
- Regain RR (Female ICR mice; [2]): 53 ± 16 min
- Duration of LORR (Female ICR mice; [3]): 109.7 ± 2.0 min
- LORR (time to onset of loss of righting reflex) (Female ICR mice; [3]): 0.9 ± 0.3 min
- Regain RR (Female ICR mice; [3]): 110 ± 2 min
- Duration of LORR (Female ICR mice; 875 mg/kg i.p., mice): >360 min
- LORR (time to onset of loss of righting reflex) (Female ICR mice; 875 mg/kg i.p., mice): 0.8 min
- Regain RR (Female ICR mice; 875 mg/kg i.p., mice): >360 min
- Duration of LORR (Female ICR mice; [4]): 1470.0 ± 756 min
- LORR (time to onset of loss of righting reflex) (Female ICR mice; [4]): 2.0 ± 2.1 min
- Regain RR (Female ICR mice; [4]): 1470 ± 85 min
- LORR (time to onset), individual mice excluded as outliers (Female ICR mice; [5]): 2.4 min and 4.2 min
- LORR duration, individual mice excluded as outliers (Female ICR mice; [5]): 156.6 min and 170.3 min
- Regaining RR, individual mice excluded as outliers (Female ICR mice; [5]): 159 min and 174.5 min
- Time of death after injection (Female ICR mice; 1000 mg/kg i.p., two mice included in the trial, listed as diethyl lactam): 7.3 min and 4.0 min
